Source: patent publication EP2338890A1, “4,7-Diazaindole derivatives and their use as fungicides” (Bayer CropScience AG, priority 2009, dated 2011)
Read-outs that look alike come from different tables or passages of the source.

Columns and labels:
Fusarium graminearum [1] = assay type: in vivo; settings: barley, preventive, 1000ppm of active ingredient, evaluated 5 days after the inoculation
Botrytis cinerea = assay: Botrytis test (beans) / protective; assay type: in vivo; settings: 250ppm of active ingredient, lesion size 2 days after the inoculation
Method: (§1) To produce a suitable preparation of active compound, 1 part by weight of active compound is mixed with the stated amounts of solvent and emulsifier, and the concentrate is diluted with water to the desired concentration.
To test for protective activity, young plants are sprayed with the preparation of active compound. After the spray coating has dried on, 2 small pieces of agar covered with growth of Botrytis cinerea are placed on each leaf. The inoculated plants are placed in a darkened chamber at 20°C and a relative atmospheric humidity of 100%.
2 days after the inoculation, the size of the lesions on the leaves is evaluated. 0% means an efficacy which corresponds to that of the control, while an efficacy of 100% means that no disease is observed.

Venturia inaequalis = assay: Venturia test (apples) / protective; assay type: in vivo; settings: 100ppm of active ingredient, evaluated 10 days after the inoculation
Method: as §1
To test for protective activity, young plants are sprayed with the preparation of active compound at the stated rate of application. After the spray coating has dried on, the plants are inoculated with an aqueous conidia suspension of the causal agent of apple scab (Venturia inaequalis) and then remain for 1 day in an incubation cabinet at approximately 20°C and a relative atmospheric humidity of 100 %.
The plants are then placed in a greenhouse at approximately 21°C and a relative atmospheric humidity of approximately 90 %.
The test is evaluated 10 days after the inoculation. 0% means an efficacy which corresponds to that of the control, while an efficacy of 100% means that no disease is observed.

Alternaria solani = assay: Alternaria test (tomato) / preventive; assay type: in vivo; settings: 500ppm of active ingredient, evaluated 7 days after the inoculation
Method: as §1
To test for preventive activity, young plants are sprayed with the preparation of active compound at the stated rate of application. One day after this treatment, the plants are inoculated with an aqueous spore suspension of Alternaria solani. The plants remain for one day in an incubation cabinet at approximately 22°C and a relative atmospheric humidity of 100%. Then the plants are placed in an incubation cabinet at approximately 20°C and a relative atmospheric humidity of 96%.
The test is evaluated 7 days after the inoculation. 0% means an efficacy which corresponds to that of the control while an efficacy of 100% means that no disease is observed.

Fusarium proliferatum = assay: microbe, parasite or virus in culture; assay type: cell-based; settings: 120 h, read-out: inhibition of Fumonisin FB1 production
Pyrenophora teres = assay: Pyrenophora test (barley) / preventive; assay type: in vivo; settings: 500ppm of active ingredient, evaluated 7-9 days after the inoculation
Method: as §1
To test for preventive activity, young plants are sprayed with the preparation of active compound at the stated rate of application. One day after this treatment, the plants are inoculated with an aqueous spore suspension of Pyrenophora teres. The plants remain for 48 hours in an incubation cabinet at 22°C and a relative atmospheric humidity of 100%. Then the plants are placed in a greenhouse at a temperature of approximately 20°C and a relative atmospheric humidity of approximately 80%.
The test is evaluated 7-9 days after the inoculation. 0% means an efficacy which corresponds to that of the control while an efficacy of 100% means that no disease is observed.

[2] = logP at pH 3.5, given with the characterisation data; assay type: physicochemical; settings: pH3.5
Fusarium graminearum [3] = assay: microbe, parasite or virus in culture; assay type: cell-based

## C#CCn1c(-c2ccncc2)c(-c2ccc(F)cc2)c2nccnc21 [Compound 2, 7-(4-fluorophenyl)-5-(prop-2-ylyl)-6-(pyridin-4-yl)-5H-pyrrolo[2,3-b]pyrazine]
Fusarium graminearum [1]
  efficacy: ≥ 70%
Botrytis cinerea
  efficacy: ≥ 70%
Venturia inaequalis
  efficacy: ≥ 70%
Alternaria solani
  efficacy: ≥ 70%
Fusarium proliferatum
  inhibition at 50 µM: > 80%
Pyrenophora teres
  efficacy: ≥ 70%
[2]
  logD: 2.22

## Fc1ccc(-c2c(-c3ccncc3)[nH]c3nccnc23)cc1 [Compound 1, 7-(4-fluorophenyl)-6-(pyridin-4-yl)-5H-Pyrrolo[2,3-b]pyrazine]
Fusarium graminearum [3]; 72 h, read-out: Growth inhibition of Fusarium graminearum
  inhibition at 50 µM: > 80%
Fusarium graminearum [3]; 168 h, read-out: inhibition of DON/AcDON
  inhibition at 50 µM: > 80%
Alternaria solani
  efficacy: ≥ 70%
Fusarium proliferatum
  inhibition at 50 µM: > 80%
Pyrenophora teres
  efficacy: ≥ 70%
[2]
  logD: 1.33
